Data: US20090221576A1, “Pharmaceutical Use of 2-Hydroxy-3-[5-(Morpholin-4-Ylmethyl) Pyridin-2-YL]-1H-IN-Dole-5-Carbonitrile as a Free Base or Salts” (ASTRAZENECA AB GLOBAL INTELLECTUAL PROPERTY, priority 2006, published 2009)

Tested on: Han Wistar rats
Experiment: Increased bone formation in rats, four-week oral gavage study, light microscopy of femur, femorotibial joint and sternum
Type: in vivo, rat
Description: Male and female Han Wistar rats were dosed by oral gavage, at dosages of 15, 55 or 100 μmol/kg/day for four weeks and compared to vehicle controls. Complete necropsies were performed and the tissues preserved in 10% formalin. The femur, femorotibial joint and sternum were decalcified, embedded in paraffin, sectioned at 5 μm thickness and stained with hematoxylin and eosin.

[1] = rat, 100 μmol/kg for 4 weeks, vs vehicle-treated control rat (FIG. 1a)

SMILES: N#Cc1ccc2[nH]c(O)c(-c3ccc(CN4CCOCC4)cn3)c2c1 [compound (I), 2-hydroxy-3-[5-(morpholin-4-ylmethyl)pyridin-2-yl]1H-indole-5-carbonitrile]
- formation of osteoid in the femur (epiphysis), FIG. 1b [1]: marked increase in formation of osteoid
- number of osteoblasts in the femur (epiphysis), FIG. 1b [1]: increased number of osteoblasts

SMILES: N#Cc1ccc2[nH]c(O)c(-c3ccc(CN4CCOCC4)cn3)c2c1.O=C(O)CC(O)(CC(=O)O)C(=O)O [Example 1, 2-Hydroxy-3-[5-(morpholin-4-ylmethyl)pyridin-2-yl]1H-indole-5-carbonitrile citrate salt]
- bone formation as evaluated by light microscopy (male and female Han Wistar rats, oral gavage, 100 μmol/kg dose level, four weeks, vs vehicle controls, femur, femorotibial joint, sternum, H&E): increased bone formation in the form of thickened trabeculae, thickened cortical bone, periosteal hyperostosis and increased number of osteoblasts
